In US20160213569A1, “PHARMACEUTICAL COMPOSITIONS OF RANOLAZINE AND DRONEDARONE” (Gilead Sciences, Inc., priority 2013, published 2016) one finds Stability data, which are given here for one molecule.

This data set can be described thus: Stability of phosphoric acid salt of dronedarone prepared without polymer. Particulars: 45° C. and 75% relative humidity (RH). In kind it is physicochemical.

Consider `CCCCc1oc2ccc(NS(C)(=O)=O)cc2c1C(=O)c1ccc(OCCCN(CCCC)CCCC)cc1.O=P(O)(O)O` [phosphoric acid salt of dronedarone], for which the Stability result was “unstable”.
